Measurements as given in US20030104487A1, “Neuropeptide receptor and uses thereof” (priority 2001, published 2003).

What was measured:
EBI2 [1] = biological target: T1, EBI2 (Homo sapiens, UniProt P32249); experiment: β-Arrestin assay (GFP-β-arrestin clustering/internalisation); type: cell-based; parameters: expressed in transfected cells; host or cells: HEK 293; conditions: HEK 293 cells transiently expressing EBI2 and GFP-β-arrestin; ligand ~500 nM, 30 minutes; confocal microscopy, FIG. 2
Description: General principle of the assay: Agonist binding to the GPCR activates G-proteins and ultimately results in second messenger cascades to elicit a physiological response. In most cases receptors occupied by agonists undergo rapid phosphorylation by GPCR Kinases (GRKs). This in turn allows β-arrestin to bind to the GPCR preventing any further interaction between the GPCR and G-protein. Internalisation of the GPCR via clathrin coated pits follows as a result of arrestin-clathrin interactions (Krupnick, J. G. and Benovic, J. L. (1998) Annual Review of Pharmacological Toxicology, 38, 289-319). By employing fusion constructs of green fluorescent protein (GFP)-β arrestin, this receptor desensitisation can be visualised using confocal microscopy. In the absence of receptor activation in a transfected cell line, fluorescence associated with the β-arrestin-GFP is evenly distributed throughout the cytoplasm. Upon receptor activation by an agonist, cytosolic β-arrestin-GFP translocates to the cell surface reflecting the interaction with the activated receptor (Evans et al. 2001). […]
The receptor EBI2 and GFP-β-arrestin mammalian expression constructs were transiently transfected in to HEK 293 cells. […] The cells were then analysed using both confocal microscopy and the Cellomics ArrayScanII methodologies in order to identify internalisation of the ligand receptor GFP-β-arrestin complex. […]

EBI2 [2] = biological target: T1, EBI2; experiment: Functional assay measuring intracellular calcium mobilisation (FLIPR); type: cell-based; conditions: EBI2-expressing cells compared to mock-transfected cells; FIG. 1
Description: 5×10^6 cells of a suitable host cell line, chosen to express a low number of endogenous receptors (e.g. HEK293 or CHO-K1) and engineered to stably express certain Gα proteins (e.g. mouse Gα15 (Wilkie, T. M. et al (1991) Proc. Natl. Acad. Sci. 88, 10049-10053), a chimeric Gqi5/Gqo5 α-subunit, or human Gα16 (Amatruda, TT 3rd et al (1991) Proc. Natl. Acad. Sci. 88, 5587-5591)), were transiently transfected with 7.5 μg of cDNA encoding EBI2 in a suitable mammalian cell expression vector, or vector alone, using Lipofectamine Plus® reagent (Gibco BRL) as per the manufacturer's protocol. […]
Fluorescence Imaging Plate Reader (FLIPR®) technology was employed as a means to detect activation of EBI2 by various potential GPCR agonists.
Cells were transfected as described in Example 3. […] The FLIPR® processing involved reading the fluorescence for all samples for 2 minutes; during this time the fluorescence baseline was determined […]. The desired amount of compounds (i.e. potential GPCR agonists) was then automatically transferred to the wells and the fluorescence was continuously monitored for the remainder of the time. […]
Compounds capable of acting as agonists for the receptor were identified by them causing a transient rise in fluorescence, and therefore in intracellular calcium, in the cells.

EBI2 [3] = biological target: T1, EBI2; experiment: Response of EBI2 to CRF-family neuropeptides (test not specified); conditions: general statement, no test named

T1 sequence (P32249 whole entry): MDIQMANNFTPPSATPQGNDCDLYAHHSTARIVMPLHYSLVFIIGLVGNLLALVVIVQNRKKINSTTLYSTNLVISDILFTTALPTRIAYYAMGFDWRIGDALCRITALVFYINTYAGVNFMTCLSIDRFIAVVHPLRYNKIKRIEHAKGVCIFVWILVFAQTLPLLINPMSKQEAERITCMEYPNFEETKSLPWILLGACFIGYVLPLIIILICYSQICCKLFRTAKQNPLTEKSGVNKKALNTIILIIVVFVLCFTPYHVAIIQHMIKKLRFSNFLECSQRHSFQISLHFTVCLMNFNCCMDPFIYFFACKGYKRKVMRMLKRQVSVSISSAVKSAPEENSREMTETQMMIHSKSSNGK

Compound | clustering of GFP-β-arrestin complex on the cell surface (EBI2 [1]) | fluorescence change over time (transient rise in intracellular calcium) (EBI2 [2]) | receptor responds to the peptide (EBI2 [3])
urotensin I | Clustering of the fluorescent GFP-β-arrestin complex is clearly observed | response of EBI2-expressing cells to urotensin I | responds
CC[C@H](C)[C@H](NC(=O)[C@@H](NC(=O)[C@H](CC(=O)O)NC(=O)[C@H](CC(C)C)NC(=O)[C@H](CC(C)C)NC(=O)[C@H](CC(C)C)NC(=O)[C@H](CCCNC(=N)N)NC(=O)[C@H](CC(N)=O)NC(=O)[C@H](CC(N)=O)NC(=O)[C@H](C)NC(=O)[C@H](C)NC(=O)[C@H](CCC(N)=O)NC(=O)[C@H](CCC(N)=O)NC(=O)[C@H](CCCCN)NC(=O)[C@H](CCC(=O)O)NC(=O)[C@H](CCCCN)NC(=O)[C@H](CCC(=O)O)NC(=O)[C@H](CCC(N)=O)NC(=O)[C@H](CCCCN)NC(=O)[C@H](CCC(=O)O)NC(=O)[C@@H](NC(=O)[C@H](CCC(=O)O)NC(=O)[C@@H](NC(=O)[C@H](CCSC)NC(=O)[C@H](CCCCN)NC(=O)[C@H](CCCNC(=N)N)NC(=O)[C@H](CC(C)C)NC(=O)[C@H](CC(C)C)NC(=O)[C@H](CCC(=O)O)NC(=O)[C@H](CC(C)C)NC(=O)[C@H](CO)NC(=O)[C@H](CC(C)C)NC(=O)[C@H](CC(=O)O)NC(=O)[C@@H](NC(=O)[C@H](CO)NC(=O)[C@@H](NC(=O)[C@@H]1CCCN1C(=O)[C@@H]1CCCN1C(=O)CNC(=O)[C@@H]1CCC(=O)N1)[C@@H](C)CC)[C@@H](C)CC)[C@@H](C)CC)[C@@H](C)CC)[C@@H](C)O)C(N)=O [sauvagine] |  |  | responds
